{"source": "patent US10995359B2", "about": "“Method for determining drug-sensitive human cell lines by analysis method in which measurement of activity of two types of protein kinase is used” (NITTO BOSEKI CO., LTD., priority 2015, dated 2021)", "key": {"[1]": {"test_system": "DU4475 (IM) cells", "experiment": "Drug sensitivity assay (cell growth test), sulforhodamine B", "format": "cell-based", "conditions": "Homo sapiens, DU-4475, 72 hours; for inhibition at 0.1 µM: DU4475, 100 nM, index 12.5% growth inhibition rate; for inhibition at 1 µM: DU4475, 1 μM, index 25% growth inhibition rate; for inhibition at 10 µM: DU4475, 10 μM, index 50% growth inhibition rate", "description": "(§1) Cultured cells were treated with a MEK inhibitor and a PI3K inhibitor in various concentrations, and cell lines sensitive to MEK and PI3K were classified by calculating a cell growth inhibition rate. The culture method and analysis method are as follows.\n(§2) Thirteen types of cells used in the present study, HCC38 (BL1), MDA-MB-231 (MSL), DU4475 (IM), HCC1187 (IM), HCC1143 (BL1), HCC1395 (LAR), HCC1937 (BL1), MDA-MB-453 (LAR), HCC70 (BL2), HS578T (MSL), MDA-MB-157 (MSL) and MDA-MB-468 (BL1), were obtained from American type culture collection (ATCC), and SUM185PE (LAR) was obtained from ASTERAND BIOSCIENCE. All the cells belong to triple negative breast cancer (TNBC), and it is known which of six types (BL1, BL2, M, MSL, IM and LAR) these belong to by an existing classification method.\n(§3) All the cells were cultured in a medium designated from a source of supply, and 2 mM L-glutamine and 10% fetal bovine serum (FBS) were supplemented.\n(§4) Each type of cells was seeded in a 96 well titer plate at 1×10^4 cells/well, and trametinib, an MEK inhibitor (Medchem Express; 0.08, 0.16, 0.31, 0.63, 1.25, 2.5, 5, 10 and 20 μM), and wortmannin, a PI3K inhibitor (Wako Pure Chemical Industries, Ltd.; 0.08, 0.16, 0.31, 0.63, 1.25, 2.5, 5, 10 and 20 μM) were dissolved in Dimethyl Sulfoxide [DMSO] (Wako Pure Chemical Industries, Ltd.) in various concentrations and treated. In addition, the effect on cell growth was examined at 72 hours after the inhibitor by sulforhodamine B assay (manufactured by SIGMA-ALDRICH), and 50 μL of sulforhodamine B solution was added to each well and cells were left at room temperature for an hour for staining. The staining degree of metabolically survival cells was examined by monitoring absorbance at a wavelength of 565 nm using a microtiter plate. The absorbance of cells which were not treated with trametinib and wortmannin (treated with DMSO) was used as a control and defined as 100% to calculate a cell growth inhibition rate.\n(§5) The cell lines were classified into 4 types, cell lines sensitive to wortmannin (hereinafter, PA), cell lines sensitive to trametinib (hereinafter, MA), cell lines resistant to wortmannin and trametinib (hereinafter, R), and others (hereinafter, S). In the classification, first the inhibition rate of each drug was calculated in a concentration of 1 μM, and the inhibition rate (%) by trametinib and the inhibition rate (%) by wortmannin were plotted on the X axis and Y axis respectively on a graph.\nas §5, with “100 nM,” for “1 μM,”\nas §5, with “10” for “1”, “graph. Using a 50% growth inhibition rate as an index of the inhibitive effect of a drug, cells were classified into 4 types by grid analysis.” for “graph.”"}, "[2]": {"test_system": "HCC70 (BL2) cells", "experiment": "Drug sensitivity assay (cell growth test), sulforhodamine B", "format": "cell-based", "conditions": "Homo sapiens, 72 hours; for inhibition at 0.1 µM: HCC70, 100 nM, index 12.5% growth inhibition rate; for inhibition at 1 µM: HCC70, 1 μM, index 25% growth inhibition rate; for inhibition at 10 µM: HCC70, 10 μM, index 50% growth inhibition rate", "description": "as §1, §2, §3, §4, §5\nas §5, with “100 nM,” for “1 μM,”\nas §5, with “10” for “1”, “graph. Using a 50% growth inhibition rate as an index of the inhibitive effect of a drug, cells were classified into 4 types by grid analysis.” for “graph.”"}, "[3]": {"test_system": "MDA-MB-231 (MSL) cells", "experiment": "Drug sensitivity assay (cell growth test), sulforhodamine B", "format": "cell-based", "conditions": "Homo sapiens, 72 hours; for inhibition at 0.1 µM: MDA-MB-231, 100 nM, index 12.5% growth inhibition rate; for inhibition at 1 µM: MDA-MB-231, 1 μM, index 25% growth inhibition rate; for inhibition at 10 µM: MDA-MB-231, 10 μM, index 50% growth inhibition rate", "description": "as §1, §2, §3, §4, §5\nas §5, with “100 nM,” for “1 μM,”\nas §5, with “10” for “1”, “graph. Using a 50% growth inhibition rate as an index of the inhibitive effect of a drug, cells were classified into 4 types by grid analysis.” for “graph.”"}, "[4]": {"test_system": "MDA-MB-453 (LAR) cells", "experiment": "Drug sensitivity assay (cell growth test), sulforhodamine B", "format": "cell-based", "conditions": "Homo sapiens, 72 hours; for inhibition at 0.1 µM: MDA-MB-453, 100 nM, index 12.5% growth inhibition rate; for inhibition at 1 µM: MDA-MB-453, 1 μM, index 25% growth inhibition rate; for inhibition at 10 µM: MDA-MB-453, 10 μM, index 50% growth inhibition rate", "description": "as §1, §2, §3, §4, §5\nas §5, with “100 nM,” for “1 μM,”\nas §5, with “10” for “1”, “graph. Using a 50% growth inhibition rate as an index of the inhibitive effect of a drug, cells were classified into 4 types by grid analysis.” for “graph.”"}, "[5]": {"test_system": "HCC70 derived tumor", "experiment": "Test of suppressing tumor growth by drug administration using tumor-bearing mice", "format": "in vivo, nude mice", "conditions": "0.3 mg/kg orally once-daily for 14 days", "description": "(§6) A cultured triple negative breast cancer cell line was injected under the skin of nude mice to create cancer-bearing mice, and a tumor tissue was established and a PI3K inhibitor and an MEK inhibitor were then administered. Tumor volumes were measured to observe an anti-tumor effect. The method for preparing a tumor-bearing mice and the administration route are as follows.\n(§7) The cell lines of MDA-MB-231, HCC70 and SUM185PE were cultured by the above-described method, and after release with trypsin, the cells was suspended with Matrigel basement membrane matrix (manufactured by Corning Incorporated) to about 7×10^6 cells/mL to prepare a cell suspension. Using a 27 gauge syringe, 0.1 mL of cell suspension was injected under the skin of 5-week old female nude mice (manufactured by CLEA Japan, Inc.) to prepare tumor-bearing mice.\n(§8) Trametinib, an MEK inhibitor, and wortmannin, a PI3K inhibitor, were each dissolved in PBS with 1% dimethylsulfoxide (DMSO) to 0.3 mg/kg to obtain a drug solution. In addition, PBS with 1% DMSO was used as a control.\n(§9) Individuals whose tumor volume reached 300 mm^3 were randomly divided into 3 groups and administration was initiated. As an administration route, a drug solution was orally administered once-daily for 14 days and the tumor volume was observed. The tumor volume was calculated by major axis×(minor axis)^2/2.\n(§10) FIGS. 33 to 35 show the results of the test of suppressing tumor growth by each inhibitor using the number of individuals N=6 in each group (Control group, Trametinib-administered group and Wortmannin-administered group) (FIG. 33: MDA-MB-231 derived tumor-bearing mice, FIG. 34: HCC70 derived tumor-bearing mice, and FIG. 35: SUM185PE derived tumor-bearing mice). […] Mann-Whitney U test was used as the test method."}, "[6]": {"test_system": "MDA-MB-231 derived tumor", "experiment": "Test of suppressing tumor growth by drug administration using tumor-bearing mice", "format": "in vivo, nude mice", "conditions": "MDA-MB-231 derived tumor-bearing mice; 0.3 mg/kg orally once-daily for 14 days", "description": "as §6, §7, §8, §9, §10"}, "[7]": {"test_system": "SUM185PE derived tumor", "experiment": "Test of suppressing tumor growth by drug administration using tumor-bearing mice", "format": "in vivo, nude mice", "conditions": "0.3 mg/kg orally once-daily for 14 days", "description": "as §6, §7, §8, §9, §10"}, "[8]": {"conditions": "read-out: inhibition rate (%) by wortmannin, classification by grid analysis"}, "[9]": {"conditions": "read-out: inhibition rate (%) by trametinib, classification by grid analysis"}}, "note": "Read-outs that look alike come from different tables or passages of the source."}
{"smiles": "COC[C@H]1OC(=O)c2coc3c2[C@@]1(C)C1=C(C3=O)[C@@H]2CCC(=O)[C@@]2(C)C[C@H]1OC(C)=O", "note": "[wortmannin, Wortmannin]", "values": [{"measurement": "inhibition at 0.1 µM", "setting": "[1]; [8]", "value": "< 12.5", "unit": "%"}, {"measurement": "inhibition at 1 µM", "setting": "[1]; [8]", "value": "< 25", "unit": "%"}, {"measurement": "inhibition at 10 µM", "setting": "[1]; [8]", "value": "< 50", "unit": "%"}, {"measurement": "inhibition at 0.1 µM", "setting": "[2]; [8]", "value": "> 12.5", "unit": "%"}, {"measurement": "inhibition at 1 µM", "setting": "[2]; [8]", "value": "> 25", "unit": "%"}, {"measurement": "inhibition at 10 µM", "setting": "[2]; [8]", "value": "> 50", "unit": "%"}, {"measurement": "inhibition at 0.1 µM", "setting": "[3]; [8]", "value": "< 12.5", "unit": "%"}, {"measurement": "inhibition at 1 µM", "setting": "[3]; [8]", "value": "< 25", "unit": "%"}, {"measurement": "inhibition at 10 µM", "setting": "[3]; [8]", "value": "< 50", "unit": "%"}, {"measurement": "inhibition at 0.1 µM", "setting": "[4]; [8]", "value": "> 12.5", "unit": "%"}, {"measurement": "inhibition at 1 µM", "setting": "[4]; [8]", "value": "> 25", "unit": "%"}, {"measurement": "inhibition at 10 µM", "setting": "[4]; [8]", "value": "> 50", "unit": "%"}, {"measurement": "suppression of tumor growth (in words)", "setting": "[5]", "value": "a significant growth suppressive effect was observed"}, {"measurement": "suppression of tumor growth (in words)", "setting": "[6]", "value": "a significant suppressive effect was not obtained"}, {"measurement": "suppression of tumor growth (in words)", "setting": "[7]", "value": "significantly suppressed"}]}
{"smiles": "CC(=O)Nc1cccc(-n2c(=O)n(C3CC3)c(=O)c3c(Nc4ccc(I)cc4F)n(C)c(=O)c(C)c32)c1", "note": "[trametinib]", "values": [{"measurement": "inhibition at 0.1 µM", "setting": "[1]; [9]", "value": "> 12.5", "unit": "%"}, {"measurement": "inhibition at 1 µM", "setting": "[1]; [9]", "value": "> 25", "unit": "%"}, {"measurement": "inhibition at 10 µM", "setting": "[1]; [9]", "value": "> 50", "unit": "%"}, {"measurement": "inhibition at 0.1 µM", "setting": "[2]; [9]", "value": "> 12.5", "unit": "%"}, {"measurement": "inhibition at 1 µM", "setting": "[2]; [9]", "value": "> 25", "unit": "%"}, {"measurement": "inhibition at 10 µM", "setting": "[2]; [9]", "value": "> 50", "unit": "%"}, {"measurement": "inhibition at 0.1 µM", "setting": "[3]; [9]", "value": "> 12.5", "unit": "%"}, {"measurement": "inhibition at 1 µM", "setting": "[3]; [9]", "value": "> 25", "unit": "%"}, {"measurement": "inhibition at 10 µM", "setting": "[3]; [9]", "value": "> 50", "unit": "%"}, {"measurement": "inhibition at 0.1 µM", "setting": "[4]; [9]", "value": "> 12.5", "unit": "%"}, {"measurement": "inhibition at 1 µM", "setting": "[4]; [9]", "value": "> 25", "unit": "%"}, {"measurement": "inhibition at 10 µM", "setting": "[4]; [9]", "value": "> 50", "unit": "%"}, {"measurement": "suppression of tumor growth (in words)", "setting": "[5]", "value": "a significant growth suppressive effect was observed"}, {"measurement": "suppression of tumor growth (in words)", "setting": "[6]", "value": "significantly suppressed"}, {"measurement": "suppression of tumor growth (in words)", "setting": "[7]", "value": "a significant growth suppressive effect was not obtained"}]}
